target: T1, human factor Xa (Homo sapiens, UniProt P00742); experiment: Factor Xa Assay (chromogenic, purified enzyme); type: biochemical; conditions: inhibition constant for inhibition of factor Xa; chromogenic substrate S-2765 140 μM, enzyme 0.5 nM, 25° C., pH 7.8; Ki=IC50/{1+(substrate concentration/Km)}; read-out: Ki(FXa)
T1 construct: 25 μl human factor Xa (Enzyme Research Laboratories, Inc; South Bend, Ind.); purchased Enzyme Research Laboratories, Inc; South Bend, Ind
Text: The ability of the compounds of the formula I to inhibit factor Xa or factor VIIa or other enzymes like thrombin, plasmin, or trypsin can be assessed by determining the concentration of the compound of the formula I that inhibits enzyme activity by 50%, i. e. the IC50 value, which was related to the inhibition constant Ki. Purified enzymes were used in chromogenic assays. […] For calculating the inhibition constant Ki, the IC50 value was corrected for competition with substrate using the formula Ki=IC50/{1+(substrate concentration/Km)} wherein Km is the Michaelis-Menten constant (Chen and Prusoff, Biochem. Pharmacol. 22 (1973) 3099-3108; I. H. Segal, Enzyme Kinetics, 1975, John Wiley & Sons, New York, 100-125; which were incorporated herein by reference). a) Factor Xa Assay
The IC50 was determined by combining in appropriate wells of a Costar half-area microtiter plate 25 μl human factor Xa (Enzyme Research Laboratories, Inc.; South Bend, Ind.) in TBS-PEG; 40 μl 10% (v/v) DMSO in TBS-PEG (uninhibited control) or various concentrations of the compound to be tested diluted in 10% (v/v) DMSO in TBS-PEG; and substrate S-2765 (N(α)-benzyloxycarbonyl-D-Arg-Gly-L-Arg-p-nitroanilide; Kabi Pharmacia, Inc.; Franklin, Ohio) in TBS-PEG.
The assay was performed by pre-incubating the compound of formula I plus enzyme for 10 min. Then the assay was initiated by adding substrate to obtain a final volume of 100 μl. The initial velocity of chromogenic substrate hydrolysis was measured by the change in absorbance at 405 nm using a Bio-tek Instruments kinetic plate reader (Ceres UV900HDi) at 25° C. during the linear portion of the time course (usually 1.5 min after addition of substrate). The enzyme concentration was 0.5 nM and substrate concentration was 140 μM.

T1 sequence (P00742 235-488 limits assumed): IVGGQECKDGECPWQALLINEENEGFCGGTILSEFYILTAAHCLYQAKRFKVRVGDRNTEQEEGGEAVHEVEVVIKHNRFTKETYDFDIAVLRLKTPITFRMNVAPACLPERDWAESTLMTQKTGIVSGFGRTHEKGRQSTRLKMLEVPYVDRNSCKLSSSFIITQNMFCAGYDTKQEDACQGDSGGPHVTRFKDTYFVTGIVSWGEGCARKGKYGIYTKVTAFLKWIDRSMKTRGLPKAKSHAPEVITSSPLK
T1 sequence (P00742 41-179 partner limits assumed): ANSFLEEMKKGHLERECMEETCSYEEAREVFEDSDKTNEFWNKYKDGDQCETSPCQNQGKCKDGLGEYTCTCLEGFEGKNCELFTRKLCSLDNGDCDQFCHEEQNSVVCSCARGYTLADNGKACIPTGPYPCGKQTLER

| Compound | Ki [µM] |
| --- | --- |
| COC(=O)c1cc(NC(=O)CCNC(=O)c2ccc(Cl)s2)ccc1N1CCOCC1=O [Example 13, 5-{3-[(5-Chloro-thiophene-2-carbonyl)-amino]-propionylamino}-2-(3-oxo-morpholin-4-yl)-benzoic acid methyl ester] | 0.263 |
| O=C(CCNC(=O)c1ccc(Cl)s1)Nc1ccc(-n2ccccc2=O)cc1C(=O)O [Example 20, 2-{3-[(5-Chloro-thiophene-2-carbonyl)-amino]-propionylamino}-5-(2-oxo-2H-pyridin-1-yl)-benzoic acid] | 0.011 |
| COC(=O)CN(C(=O)CCNC(=O)c1ccc(Cl)s1)c1ccc(N2CCOCC2=O)cc1 [Example 23, {{3-[(5-Chloro-thiophene-2-carbonyl)-amino]-propionyl}-[4-(3-oxo-morpholin-4-yl)-phenyl]-amino}-acetic acid methyl ester] | 0.212 |
| O=C(NCCC(=O)n1ccc2cc(-n3ccncc3=O)ccc21)c1ccc(Cl)s1 [Example 5, 5-Chloro-thiophene-2-carboxylic acid {3-oxo-3-[5-(2-oxo-2H-pyrazin-1-yl)-indol-1-yl]-propyl}-amide] | 0.008 |
| O=C(NCCC(=O)N(CC(F)F)c1ccc(N2CCOCC2=O)cc1)c1ccc(Cl)s1 [Example 25, 5-Chloro-thiophene-2-carboxylic acid (2-{(2,2-difluoro-ethyl)-[4-(3-oxo-morpholin-4-yl)-phenyl]-carbamoyl}-ethyl)-amide] | 0.383 |
| O=C(NCC(F)(F)C(=O)Nc1ccc(N2CCOCC2=O)cc1)c1ccc(Cl)s1 [Example 11, 5-Chloro-thiophene-2-carboxylic acid {2,2-difluoro-2-[4-(3-oxo-morpholin-4-yl)-phenylcarbaminyl]-ethyl}-amide] | 0.018 |
| O=C(NCCC(=O)N1CCc2cc(-n3ccncc3=O)ccc21)c1ccc(Cl)s1 [Example 4, 5-Chloro-thiophene-2-carboxylic acid {3-oxo-3-[5-(2-oxo-2H-pyrazin-1-yl)-2,3-dihydro-indol-1-yl]-propyl}-amide] | 0.04 |
| O=C(CCNC(=O)c1ccc(Cl)s1)Nc1ccc(N2CCOCC2=O)c(C(=O)O)c1 [Example 14, 5-{3-[(5-Chloro-thiophene-2-carbonyl)-amino]-propionylamino}-2-(3-oxo-morpholin-4-yl)-benzoic acid] | 30 |
| COC(=O)c1cc(-n2ccccc2=O)ccc1NC(=O)CCNC(=O)c1ccc(Cl)s1 [Example 19, 2-{3-[(5-Chloro-thiophene-2-carbonyl)-amino]-propionylamino}-5-(2-oxo-2H-pyridin-1-yl)-benzoic acid methyl ester] | 0.002 |
| O=C(O)CN(C(=O)CCNC(=O)c1ccc(Cl)s1)c1ccc(N2CCOCC2=O)cc1 [Example 24, {{3-[(5-Chloro-thiophene-2-carbonyl)-amino]-propionyl}-[4-(3-oxo-morpholin-4-yl)-phenyl]-amino}-acetic acid] | 0.228 |
| O=C(CCNC(=O)c1ccc(Cl)cc1)Nc1ccc(-n2ccc(=O)cc2)cc1 [Example 22, 4-Chloro-N-{2-[4-(4-oxo-4H-pyridin-1-yl)-phenylcarbaminyl]-ethyl}-benzamide] | 4 |
| N=C(N)c1cccc(C(=O)NCCC(=O)Nc2ccc(-n3ccncc3=O)cc2)c1 [Example 12, 3-Carbamimidoyl-N-{2-[4-(2-oxo-2H-pyrazin-1-yl)-phenylcarbaminyl]-ethyl}-benzamide] | 0.1 |
| O=C(N[C@H](CNC(=O)c1ccc(Cl)s1)C(=O)Nc1ccc(N2CCOCC2=O)c(C(F)(F)F)c1)OCc1ccccc1 [Example 26, {(R)-2-[(5-Chloro-thiophene-2-carbonyl)-amino]-1-[4-(3-oxo-morpholin-4-yl)-3-trifluoromethyl-phenylcarbaminyl]-ethyl}-carbamic acid benzyl ester] | 0.012 |
| O=C(CCNC(=O)c1ccc(Cl)cc1)Nc1ccc(N2CCOCC2=O)cc1 [Example 3, 4-Chloro-N-{2-[4-(3-oxo-morpholin-4-yl)-phenylcarbaminyl]-ethyl}-benzamide] | 1.39 |
| O=C(NC[C@@H](NCC(F)F)C(=O)Nc1ccc(N2CCOCC2=O)c(C(F)(F)F)c1)c1ccc(Cl)s1 [Example 7, 5-Chloro-thiophene-2-carboxylic acid {(R)-2-(2,2-difluoro-ethylamino)-2-[4-(3-oxo-morpholin-4-yl)-3-trifluoromethyl-phenylcarbaminyl]-ethyl}-amide] | 0.059 |
| O=C(CCNC(=O)c1ccc(Cl)s1)Nc1ccc(N2CCOCS2(=O)=O)cc1 [Example 9, 5-Chloro-thiophene-2-carboxylic acid {2-[4-(3,3-dioxo-[1,3,4]oxathiazinan-4-yl)-phenylcarbaminyl]-ethyl}-amide] | 0.03 |
| O=C(CCNC(=O)c1ccc(Cl)s1)Nc1ccc(-n2ccncc2=O)cc1 [Example 2, 5-Chloro-thiophene-2-carboxylic acid {2-[4-(2-oxo-2H-pyrazin-1-yl)-phenylcarbaminyl]-ethyl}-amide] | 0.007 |
| O=C(CCNC(=O)c1ccc(Cl)s1)Nc1ccc(-n2ccc(=O)cc2)cc1 [Example 21, 5-Chloro-thiophene-2-carboxylic acid {2-[4-(4-oxo-4H-pyridin-1-yl)-phenylcarbaminyl]-ethyl}-amide] | 0.26 |
| O=C(CCNC(=O)c1ccc(Cl)s1)Nc1ccc(-n2ccncc2=O)cc1F [Example 6, 5-Chloro-thiophene-2-carboxylic acid {2-[2-fluoro-4-(2-oxo-2H-pyrazin-1-yl)-phenylcarbaminyl]-ethyl}-amide] | 0.004 |
| O=C(CCNC(=O)c1ccc(Cl)s1)Nc1ccc(N2CCOCC2=O)c(F)c1 [Example 16, 5-Chloro-thiophene-2-carboxylic acid {2-[3-fluoro-4-(3-oxo-morpholin-4-yl)-phenylcarbaminyl]-ethyl}-amide] | 0.015 |
| O=C(CCNS(=O)(=O)c1ccc(Cl)s1)Nc1ccc(N2CCOCC2=O)cc1 [Example 8, 3-(5-Chloro-thiophene-2-sulfonylamino)-N-[4-(3-oxo-morpholin-4-yl)-phenyl]-propionamide] | 0.375 |
| O=C(CCNC(=O)c1ccc(Cl)s1)Nc1ccc(N2CCOCC2=O)nc1 [Example 15, 5-Chloro-thiophene-2-carboxylic acid {2-[6-(3-oxo-morpholin-4-yl)-pyridin-3-ylcarbamoyl]-ethyl}-amide] | 0.194 |
| O=C(NCC(F)(F)C(=O)Nc1ccc(-n2ccncc2=O)cc1)c1ccc(Cl)s1 [Example 10, 5-Chloro-thiophene-2-carboxylic acid {2,2-difluoro-2-[4-(2-oxo-2H-pyrazin-1-yl)-phenylcarbaminyl]-ethyl}-amide] | 0.008 |
| COC(=O)c1cc(N2CCOCC2=O)ccc1NC(=O)CCNC(=O)c1ccc(Cl)s1 [Example 18, 2-{3-[(5-Chloro-thiophene-2-carbonyl)-amino]-propionylamino}-5-(3-oxo-morpholin-4-yl)-benzoic acid methyl ester] | 0.003 |
